The values that follow come from patent US9072746B2, “Method for enhancing learning and memory impaired by neurodegenerative disorders and compounds and compositions for effecting the same” (The Board of Trustees of the Leland Stanford Junior …, priority 2010, dated 2015).

Entries after “also recorded” stand apart in the source; their conditions may differ.

Holding throughout (assay type): in vivo
Assay [1] deals with male Ts65Dn mice. Kind of assay: Contextual fear conditioning. To be noted: for effect on memory retrieval deficit in contextual fear conditioning: xamoterol 3 mg/kg s.c. one hour before testing. On the procedure: (§1) Contextual and Cued fear conditioning was conducted for evaluation of fear-dependent learning and retrieval in the study. The test was performed using chambers from Coulbourn Instruments (Whitehall, Pa.). On the first day, the animals were placed in a chamber (Context A) for 3 min for baseline recording, followed by 5 tone-shock pairings. The shock (0.5 mA, 2 sec) was delivered following the tone (70 dB, 2 kHz, 20 sec) in each conditional/unconditional stimulus pairing. On the second day a novel chamber (Context B; new room, new olfactory environment, texture of floor, blue plastic inserts for walls, extra source of blue light, and visual cues) was used for cued testing. Three tones without shocks were presented to animals during a 3 min testing period following a 3 min pre-tone period. On the last day of the experiment, the mice were placed in Context A for 5 min without any conditional and unconditional stimulus {modified from the method described by (Saxe et al., 2006)}. Freezing was defined as the complete lack of motion for a minimum of 0.75 second as measured by FreezeFrame software (Actimetrics, Evanston, Ill.). The percent of freezing in each period was reported. For the startle response control test, an acoustic startle reflex apparatus (Med Associates Inc., St. Albans, Vt.) was used. The subjects were acclimated to the animal holder in the startle box for a total of 15 min over 3 consecutive-days prior to the experiment. The animals were exposed to 25 different trials with 10-20 second randomly variable inter-trial intervals. Five different intensities of startle pulses, 0, 90, 100, 110, and 120 dB, were randomly used, and each animal was randomly exposed 5 times to each intensity of the startle pulse. The duration of each startle pulse was 40 ms and the peak amplitude of the startle response in each trial was recorded for analysis. The holding cage on the apparatus was cleaned with 10% alcohol between each animal. […] In this part of the study, activity chamber and three cognitive tests, including T-maze spontaneous alternation, contextual fear conditioning (CFC), and novel object recognition were performed. In T-maze spontaneous alternation and contextual fear conditioning, both Ts65Dn and 2N male mice were divided into three treatment groups including normal saline (Vehicle), xamoterol, and betaxolol plus xamoterol groups. In the novel object recognition test, both Ts65Dn and 2N male mice were divided into two treatment groups, normal saline and xamoterol. The T-maze was performed exactly as previously described. […] On the first day (training day), animals were placed in the fear conditioning chamber, and after a 3-minute pre-shock period, they were exposed to 5 shocks (2 s, 0.5 mA,) with inter-trial intervals of 80 seconds and no tone. On the second day, the animals first received xamoterol, xamoterol plus betaxolol, or saline injection, and one hour later, they were placed in the same chamber for 5 minutes. Similar to the previous description of fear conditioning, freezing was defined as the complete lack of motion for a minimum of o.75 second. The Novel Object Recognition task is conducted in an open field arena (40 cm×40 cm). Mice were habituated in the testing room for 1 hour followed by 5 minutes habituation inside the arena without any objects. On 4th day animals were introduced 3 times to arena with 3 identical subjects for 10 minutes with 3 minutes inter trial intervals. On 5th day (24 hours after trainings) one of the objects replaced by a novel one and the time sniffing of each object were used for analysis. For testing the role of β1 adrenergic system, xamoterol and betaxolol (Tocris Bioscience, Ellisville, Mo.) were injected subcutaneously using 10 ml/kg normal saline as vehicle. Xamoterol, (3 mg/kg) was given one hour before testing and betaxolol (1 mg/kg) was given 30 minutes before testing.

Assay [2] has as its system male 2N mice. The assay can be described thus: Contextual fear conditioning. To be noted: xamoterol 3 mg/kg s.c. 1 h, betaxolol 1 mg/kg s.c. 30 min before testing. On the procedure: as §1
Assay [3] deals with male Ts65Dn mice. Kind of assay: T-maze spontaneous alternation. The settings on record: for effect on T-maze spontaneous alternation deficit: xamoterol 3 mg/kg s.c. The text has this: (§2) The T-maze had 3 equal arms (30 cm length, 10 cm width, and 20 cm height). The start arm and 2 goal arms had guillotine gates. This test was based on the rodents' preference to experience a new arm of the T-maze instead of a familiar one ([…], 1998). In each trial, the mouse was placed in the start arm. The gate was then opened and the mouse was able to freely explore the arms. As soon as the mouse entered one goal arm, the sliding gate of the other goal arm closed. The mouse eventually returned to the start arm and the next trial was started. In the next trial, the mouse may recognize the previously chosen goal arm and choose to explore a new arm rather than revisit the previously visited arm. This trial was repeated 11 times per day for 3 consecutive days, for a total of 33 trials. The maze was cleaned with 50% ethanol between trials to eliminate odor. Percent of alternation (number of turns in each goal arm) was used for analysis. This protocol has been described before by Belichenko et al. (2009) and is modified from a Deacon and Rawlins (2006) protocol (Deacon and Rawlins, 2006; Belichenko et al., 2009). […] In this part of the study, activity chamber and three cognitive tests, including T-maze spontaneous alternation, contextual fear conditioning (CFC), and novel object recognition were performed. In T-maze spontaneous alternation and contextual fear conditioning, both Ts65Dn and 2N male mice were divided into three treatment groups including normal saline (Vehicle), xamoterol, and betaxolol plus xamoterol groups. In the novel object recognition test, both Ts65Dn and 2N male mice were divided into two treatment groups, normal saline and xamoterol. The T-maze was performed exactly as previously described. […] On the first day (training day), animals were placed in the fear conditioning chamber, and after a 3-minute pre-shock period, they were exposed to 5 shocks (2 s, 0.5 mA,) with inter-trial intervals of 80 seconds and no tone. On the second day, the animals first received xamoterol, xamoterol plus betaxolol, or saline injection, and one hour later, they were placed in the same chamber for 5 minutes. Similar to the previous description of fear conditioning, freezing was defined as the complete lack of motion for a minimum of o.75 second. The Novel Object Recognition task is conducted in an open field arena (40 cm×40 cm). Mice were habituated in the testing room for 1 hour followed by 5 minutes habituation inside the arena without any objects. On 4th day animals were introduced 3 times to arena with 3 identical subjects for 10 minutes with 3 minutes inter trial intervals. On 5th day (24 hours after trainings) one of the objects replaced by a novel one and the time sniffing of each object were used for analysis. For testing the role of β1 adrenergic system, xamoterol and betaxolol (Tocris Bioscience, Ellisville, Mo.) were injected subcutaneously using 10 ml/kg normal saline as vehicle. Xamoterol, (3 mg/kg) was given one hour before testing and betaxolol (1 mg/kg) was given 30 minutes before testing.

Assay [4] relates to male 2N mice. Kind of assay: T-maze spontaneous alternation. The settings on record: xamoterol 3 mg/kg s.c. 1 h, betaxolol 1 mg/kg s.c. 30 min before testing.
From the text: as §2

Where [5] appears, read: xamoterol 3 mg/kg s.c. 1 h, betaxolol 1 mg/kg s.c. 30 min before testing.

Regarding `O=C(NCCNCC(O)COc1ccc(O)cc1)N1CCOCC1` (stereo not shown) [xamoterol], the results for the “% Freshing in Tone-cued Fear Conditioning, Mean ± SEM” value in the assay with male Ts65Dn mice [1] (setting [5]) and with male 2N mice [2] were 45.36 ± 12.40% and 38.43 ± 8.26%, respectively. The “effect on memory retrieval deficit in contextual fear conditioning” value in the assay with male Ts65Dn mice [1] is “completely rescue”; in the assay with male Ts65Dn mice [1] (listed as Xamoterol) it was “rescued; also recorded: improved”; with male Ts65Dn mice [1] (listed as Xamoterole), “Xamoterole rescues the deficit in”. Also, the results for the “effect on T-maze spontaneous alternation deficit” value in the assay on male Ts65Dn mice [3], with male Ts65Dn mice [3] (listed as Xamoterol) and with male Ts65Dn mice [3] (listed as Xamoterole) were “completely rescue; also recorded: rescued”, “rescued” and “Xamoterole can rescue the deficit in”, respectively. The results for the “% of Spontaneous Alternation in T-maze, Mean ± SEM” value in the assay on male Ts65Dn mice [3] (setting [5]) and with male 2N mice [4] were 60.4 ± 4.5% and 64.4 ± 2.1%, respectively.
